Patent US8580762B2, “Substituted purine and 7-deazapurine compounds” (Epizyme, Inc., priority 2010, dated 2013)

Biological target: DOT1L(1-416) (Homo sapiens, UniProt Q8TEK3)
Assay: Determination of IC50: DOT1L(1-416) methyltransferase assay, 3H-SAM, oligonucleosome substrate, Flashplate
Type: biochemical
Conditions: class symbols; read-out: DOT1L IC50
Description: Determination of IC50. Test compounds were serially diluted 3 fold in DMSO for 10 points and 1 μl was plated in a 384 well microtiter plate. […] 10 μl per well of substrate mix (same assay buffer with 200 nM S-[methyl-^3H]-adenosyl-L methionine, 600 nM of unlabeled […], and 20 nM oligonueleosome) was added to initiate the reaction. Reaction was incubated for 120 minutes at room temperature and quenched with 10 μl per well of 100 μM S-methyl-adenosyl-L methionine. For detection, substrate from 50 μl of reaction was immobilized on a 384 well Streptavidin coated Flashplate (Perkin Elmer) (also coated with 0.2% polyethyleneimine) and read on a Top Count scintillation counter (Perkin Elmer).

DOT1L(1-416), sequence (Q8TEK3 1-416): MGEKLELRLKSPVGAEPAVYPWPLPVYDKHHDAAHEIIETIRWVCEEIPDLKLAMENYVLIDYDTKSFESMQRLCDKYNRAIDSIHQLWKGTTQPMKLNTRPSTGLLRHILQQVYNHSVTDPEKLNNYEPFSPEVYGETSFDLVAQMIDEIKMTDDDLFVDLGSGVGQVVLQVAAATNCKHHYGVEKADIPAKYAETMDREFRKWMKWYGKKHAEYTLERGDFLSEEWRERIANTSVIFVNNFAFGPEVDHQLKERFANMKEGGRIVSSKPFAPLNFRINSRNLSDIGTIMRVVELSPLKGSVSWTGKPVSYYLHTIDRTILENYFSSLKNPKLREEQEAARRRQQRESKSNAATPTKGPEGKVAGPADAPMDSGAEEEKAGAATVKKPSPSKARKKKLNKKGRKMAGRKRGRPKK

Structure (SMILES): CN(C[C@H]1C[C@@H](n2ccc3c(N)ncnc32)[C@H](O)[C@@H]1O)[C@H]1C[C@H](CCc2nc3cc(C4(C)CCC4)ccc3[nH]2)C1 [Compound 39]
- IC50: < 100 nM

Structure (SMILES): CN(C[C@H]1C[C@@H](n2ccc3c(N)ncnc32)[C@H](O)[C@@H]1O)[C@H]1C[C@@H](CCc2nc3cc(OC(F)(F)F)ccc3[nH]2)C1 [Compound 37, (1R,2S,3R,5R)-3-(4-amino-7,1-pyrrolo[2,3-d]pyrimidin-7-yl)-5-((methyl((1r,3S)-3-(2-(5-(trifluoromethoxy)-1H-benzo[d]imidazol-2-yl)ethyl)cyclobutyl)amino)methyl)cyclopentane-1,2-diol]
- IC50: < 100 nM

Structure (SMILES): CCN(C[C@H]1O[C@@H](n2cnc3c(N)ncnc32)[C@H](O)[C@@H]1O)[C@H]1C[C@H](CCc2nc3cc(C(C)(C)C)ccc3[nH]2)C1 [Compound 74, (2R,3R,4S,5R)-2-(6-amino-9H-purin-9-yl)-5-((((1s,3R)-3-(2-(5-(tert-butyl)-1H-benzo[d]imidazol-2-yl)ethyl)cyclobutyl)(ethyl)amino)methyl)tetrahydrofuran-3,4-diol]
- IC50: < 100 nM

Structure (SMILES): CC(C)(C)c1ccc2[nH]c(CC[C@H]3C[C@@H](N(C[C@H]4C[C@@H](n5ccc6c(N)ncnc65)[C@H](O)[C@@H]4O)C4CCC4)C3)nc2c1 [Compound 46, (1R,2S,3R,5R)-3-(4-amino-7H-pyrrolo[2,3-d]pyrimidin-7-yl)-5-((((1r,3S)-3-(2-(5-(tert-butyl)-1,1-benzo[d]imidazol-2-yl)ethyl)cyclobutyl)(cyclobutyl)amino)methyl)cyclopentane-1,2-diol]
- IC50: < 100 nM

Structure (SMILES): CN(C[C@H]1C[C@@H](n2ccc3c(N)ncnc32)[C@H](O)[C@@H]1O)[C@H]1C[C@H](CCc2nc3cc(Br)ccc3[nH]2)C1 [Compound 55, (1R,2S,3R,5R)-3-(4-amino-7H-pyrrolo[2,3-d]pyrimidin-7-yl)-5-((((1s,3R)-3-(2-(5-bromo-1H-benzo[d]imidazol-2-yl)ethyl)cyclobutyl)(methyl)amino)methyl)cyclopentane-1,2-diol]
- IC50: < 100 nM

Structure (SMILES): CCN(C[C@H]1C[C@@H](n2ccc3c(N)ncnc32)[C@H](O)[C@@H]1O)[C@H]1C[C@@H](CCc2nc3cc(C(C)(C)C)ccc3[nH]2)C1 [Compound 38, (1R,2S,3R,5R)-3-(4-amino-7H-pyrrolo[2,3-d]pyrimidin-7-yl)-5-((((1r,3S)-3-(2-(5-(tert-butyl)-1H-benzo[d]imidazol-2-yl)ethyl)cyclobutyl)(ethyl)amino)methyl)cyclopentane-1,2-diol]
- IC50: < 100 nM

Structure (SMILES): CN(C[C@H]1C[C@@H](n2ccc3c(N)ncnc32)[C@H](O)[C@@H]1O)[C@H]1C[C@@H](CCc2nc3cc(Br)ccc3[nH]2)C1 [Compound 47, (1R,2S,3R,5R)-3-(4-amino-7H-pyrrolo[2,3-d]pyrimidin-7-yl)-5-((((1r,38)-3-(2-(5-bromo-1H-benzo[d]imidazol-2-yl)ethyl)cyclobutyl)(methyl)amino)methyl)cyclopentane-1,2-diol]
- IC50: < 100 nM

Structure (SMILES): CN(C[C@H]1O[C@@H](n2cnc3c(N)ncnc32)[C@H](O)[C@@H]1O)[C@H]1C[C@@H](CCc2nc3cc(OC(F)(F)F)ccc3[nH]2)C1 [Compound 96, (2R,3R,4S,5R)-2-(6-amino-9H-purin-9-yl)-5-((methyl((1r,3S)-3-(2-(5-(trifluoromethoxy)-1H-benzo[d]imidazol-2-yl)ethyl)cyclobutyl)amino)methyl)tetrahydrofuran-3,4-diol]
- IC50: < 100 nM

Structure (SMILES): CC(C)N(C[C@H]1O[C@@H](n2cnc3c(N)ncnc32)[C@H](O)[C@@H]1O)C1CC(CCc2nc3cc(C(C)(C)C#N)ccc3[nH]2)C1 (stereo partly drawn) [Compound 120, 2-(2-(2-(3-((((2R,3S,4R,5R)-5-(6-amino-9H-purin-9-yl)-3,4-dihydroxytetrahydro-furan-2-yl)methyl)(isopropyl)amino)cyclobutyl)ethyl)-1H-benzo[d]imidazol-5-yl)-2-methylpropanenitrile]
- IC50: < 100 nM

Structure (SMILES): CC(C)N(C[C@H]1O[C@@H](n2cnc3c(N)ncnc32)[C@H](O)[C@@H]1O)[C@H]1C[C@H](CCc2nc3cc(C4(C)CCC4)ccc3[nH]2)C1 [Compound 31, (2R,3R,4S,5R)-2-(6-amino-9H-purin-9-yl)-5-((isopropyl((1s,3R)-3-(2-(5-(1-methylcyclobutyl)-1H-benzo[d]imidazol-2-yl)ethyl)cyclobutyl)amino)methyl)tetrahydrofuran-3,4-diol]
- IC50: < 100 nM

Structure (SMILES): CN(C[C@H]1C[C@@H](n2ccc3c(N)ncnc32)[C@H](O)[C@@H]1O)C1CC(CCc2nc3cc(OC(F)(F)F)ccc3[nH]2)C1 (stereo partly drawn) [Compound 24, (1R,2S,3R,5R)-3-(4-amino-7H-pyrrolo[2,3-d]pyrimidin-7-yl)-5-((methyl(3-(2-(5-(trifluoromethoxy)-1H-benzo[d]imidazol-2-yl)ethyl)cyclobutyl)amino)methyl)cyclopentane-1,2-diol]
- IC50: < 100 nM

Structure (SMILES): CC(C)N(C[C@H]1O[C@@H](n2cnc3c(N)ncnc32)[C@H](O)[C@@H]1O)[C@H]1C[C@H](CCc2nc3cc(C4(C#N)CC4)ccc3[nH]2)C1 [Compound 136, 1-(2-(2-((1R,3s)-3-((((2R,3S,4R,5R)-5-(6-amino-9H-purin-9-yl)-3,4-dihydroxytetrahydro-furan-2-yl)methyl)(isopropyl)amino)cyclobutyl)ethyl)-1H-benzo[d]imidazol-5-yl)cyclo-propanecarbonitrile]
- IC50: < 100 nM

Structure (SMILES): CN(C[C@H]1C[C@@H](n2ccc3c(N)ncnc32)[C@H](O)[C@@H]1O)C1CC(CCc2nc3cc(C4(C)CCC4)ccc3[nH]2)C1 (stereo partly drawn) [Compound 29, (1R,2S,3R,5R)-3-(4-amino-7H-pyrrolo[2,3-d]pyrimidin-7-yl)-5-((methyl(3-(2-(5-(1-methylcyclobutyl)-1H-benzo[d]imidazol-2-yl)ethyl)cyclobutyl)amino)methyl)cyclopentane-1,2-diol]
- IC50: < 100 nM

Structure (SMILES): CC(C)N(C[C@H]1O[C@@H](n2cnc3c(N)ncnc32)[C@H](O)[C@@H]1O)[C@H]1C[C@H](CCc2nc3cc(Cl)c(C(F)(F)F)cc3[nH]2)C1 [Compound 4, (2R,3R,4S,5R)-2-(6-amino-9H-purin-9-yl)-5-((((1s,3R)-3-(2-(5-chloro-6-(trifluoromethyl)-1H-benzo[d]imidazol-2-yl)ethyl)cyclobutyl)(isopropyl)amino)methyl)tetrahydrofuran-3,4-diol]
- IC50: < 100 nM

Structure (SMILES): CC(C)N(C[C@H]1O[C@@H](n2ccc3c(N)ncnc32)[C@H](O)[C@@H]1O)[C@H]1C[C@@H](CCc2nc3cc(C(C)(C)C)ccc3[nH]2)C1 [Compound 90, (2R,3R,4S,5R)-2-(4-amino-7H-pyrrolo[2,3-d]pyrimidin-7-yl)-5-((((1r,3S)-3-(2-(5-(tert-butyl)-1H-benzo[d]imidazol-2-yl)ethyl)cyclobutyl)(isopropyl)amino)methyl)tetrahydrofuran-3,4-diol]
- IC50: < 100 nM

Structure (SMILES): CC(C)N(C[C@H]1C[C@@H](n2ccc3c(N)ncnc32)[C@H](O)[C@@H]1O)[C@H]1C[C@@H](CCc2nc3cc(C(C)(C)C)ccc3[nH]2)C1 [Compound 41, (1R,2S,3R,5R)-3-(4-amino-7H-pyrrolo[2,3-d]pyrimidin-7-yl)-5-((((1r,3S)-3-(2-(5-(tert-butyl)-1H-benzo[d]imidazol-2-yl)ethyl)cyclobutyl)(isopropyl)amino)methyl)cyclopentane-1,2-diol]
- IC50: < 100 nM
